Source: patent publication US6436933B1 (priority 2001, dated 2002)
pIC50: −log10 of the molar value.

Columns and labels:
[1] = target: T1, Anthrax Lethal Factor (ALF) (Bacillus anthracis, UniProt P15917); assay type: biochemical
[2] = target: T1, Anthrax Lethal Factor (ALF); test: biochemical; assay type: biochemical
B anthracis = conditions: monkey, in vivo; cited from earlier work

T1 sequence (P15917 34-809 limits assumed): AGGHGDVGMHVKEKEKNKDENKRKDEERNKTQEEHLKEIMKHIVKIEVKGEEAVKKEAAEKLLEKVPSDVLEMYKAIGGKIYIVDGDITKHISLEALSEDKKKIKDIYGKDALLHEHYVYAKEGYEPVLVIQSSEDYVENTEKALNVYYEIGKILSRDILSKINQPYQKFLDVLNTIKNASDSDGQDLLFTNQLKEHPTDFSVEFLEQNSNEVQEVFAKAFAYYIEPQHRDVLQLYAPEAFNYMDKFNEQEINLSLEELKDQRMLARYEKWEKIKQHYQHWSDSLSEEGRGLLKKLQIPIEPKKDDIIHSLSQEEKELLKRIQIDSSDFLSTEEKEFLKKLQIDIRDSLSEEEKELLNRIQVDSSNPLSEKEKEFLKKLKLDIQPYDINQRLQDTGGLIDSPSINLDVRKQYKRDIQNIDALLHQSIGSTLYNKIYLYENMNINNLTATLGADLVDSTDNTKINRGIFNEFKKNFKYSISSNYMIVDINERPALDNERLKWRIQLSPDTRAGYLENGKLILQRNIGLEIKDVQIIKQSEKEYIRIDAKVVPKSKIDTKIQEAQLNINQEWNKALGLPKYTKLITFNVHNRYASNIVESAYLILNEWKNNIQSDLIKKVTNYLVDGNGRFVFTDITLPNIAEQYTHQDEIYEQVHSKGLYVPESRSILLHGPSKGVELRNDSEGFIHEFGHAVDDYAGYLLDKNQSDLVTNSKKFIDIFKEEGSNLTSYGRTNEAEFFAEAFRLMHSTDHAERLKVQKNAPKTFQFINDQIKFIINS

## CC(C)c1nc(-c2ccccc2)c(-c2ccccc2)n(O)c1=O [Compound 1, 3-isoprpyl-5,6dipheny-1-1-hydroxy-2-oxo-1,2-dihydropyrazine]
[1]
  Activity by Gel, % @ 200: 0% @ 200

## CCc1nc(C(C)C)c(=O)n(O)c1CC [Compound 2, 3-isopropyl-5,6diethyl-1-hydroxy-2-oxo-1,2dihydropyrazine]
[1]
  Activity by Gel, % @ 200: 0% @ 200

## Cc1c(-c2ccccc2)nc(CC(C)C)c(=O)n1O [Compound 3, 1-hydroxy-6-methyl-3-(2-methylpropyl)-5-phenylhydropyrazin-2-one]
[1]
  Activity by Gel, % @ 200: 0% @ 200

## CC(C)Cc1nc(-c2ccccc2)cn(O)c1=O [Compound 4, 1-hydroxy-3-(2-methylpropyl)-5-phenylhydropyrazin-2-one]
[1]
  Activity by Gel, % @ 200: 0% @ 200

## O=c1c(Cc2ccccc2)nc(-c2ccccc2)c(-c2ccccc2)n1O [Compound 5, 1-hydroxy-5,6-diphenyl-3-benzylhydropyrazin-2-one]
[2]
  pIC50: 5.22
[1]
  Activity by Gel, % @ 200: 45% @ 200

## Cc1c(-c2ccccc2)nc(Cc2ccccc2)c(=O)n1O [Compound 6, 1-hydroxy-6-methyl-5-phenyl-3-benzylhydropyrazin-2-one]
[2]
  pIC50: 4.15

## O=c1c(Cc2ccccc2)nc(-c2ccccc2)cn1O [Compound 7, 1-hydroxy-5-phenyl-3-benzylhydropyrazin-2-one]
[2]
  pIC50: 4.82

## O=c1c(Cc2ccc(-c3ccccc3)cc2)nc(-c2ccccc2)c(-c2ccccc2)n1O [Compound 11, 3-(4′-phenyl)-benzyl-5,6diphenyl-1-hydroxy-2-oxo-1,2-dihydropyrazine]
[1]
  Activity by Gel, % @ 100: 2% @ 100

## Cc1c(-c2ccccc2)nc(Cc2ccc(-c3ccccc3)cc2)c(=O)n1O [Compound 12, 3-(4′-phenyl)-benzyl-5-phenyl-6-methyl-1-hydroxy-2-oxo-1,2-dihydropyrazine]
[2]
  pIC50: 4.82

## O=c1c(Cc2ccccc2)nc(-c2ccc(N3CCOCC3)cc2)cn1O [Compound 14, 1-hydroxy-5-(4-morpholin-4-ylphenyl)-3-benzylhydropyrazin-2-one]
[2]
  Activity by plate, % @ 100: 0% @ 100

## O=c1c(Cc2ccccc2)nc(-c2ccc(F)cc2)cn1O [Compound 15, 5-(4-fluorophenyl)-1-hydroxy-3-benzylhydropyrazin-2-one]
[2]
  Activity by plate, % @ 100: 33% @ 100

## O=c1c(Cc2ccccc2)nc(-c2cccs2)cn1O [Compound 16, 1-hydroxy-3-benzyl-5-(2-thienyl)hydropyrazin-2-one]
[2]
  Activity by plate, % @ 100: 33% @ 100

## O=c1c(Cc2ccccc2)nc(-c2ccc(-c3ccccc3)cc2)cn1O [Compound 17, 1-hydroxy-3-benzyl-5-(4-phenylphenyl)hydropyrazin-2-one]
[2]
  Activity by plate, % @ 100: 41% @ 100

## O=c1c(Cc2ccccc2)nc(-c2ccc(C3CCCCC3)cc2)cn1O [Compound 18, 5-(4-cyclohexylphenyl)-1-hydroxy-3-benzylhydropyrazin-2-one]
[2]
  pIC50: 5.10

## O=c1c(Cc2ccccc2)nc(-c2ccc3ccccc3c2)cn1O [Compound 19, 1-hydroxy-5-(2-naphthyl)-3-benzylhydropyrazin-2-one]
[2]
  Activity by plate, % @ 100: 59% @ 100

## O=c1c(Cc2ccccc2)nc(-c2ccc(Br)cc2)cn1O [Compound 20, 5-(4-bromophenyl)-1-hydroxy-3-benzylhydropyrazin-2-one]
[2]
  Activity by plate, % @ 100: 63% @ 100

## O=c1c(Cc2ccccc2)nc(-c2ccc(O)cc2)cn1O [Compound 21, 1-hydroxy-5-(4-hydroxyphenyl)-3-benzylhydropyrazin-2-one]
[2]
  Activity by plate, % @ 100: 7% @ 100

## O=c1c(Cc2ccccc2)nc(-c2ccc3c(c2)OCO3)cn1O [Compound 22, 5-(2H-benzo[d]1,3-dioxolen-5-yl)-1-hydroxy-3-benzylhydropyrazin-2-one]
[2]
  Activity by plate, % @ 100: 39% @ 100

## O=c1c(Cc2ccccc2)nc(-c2ccc([N+](=O)[O-])cc2)cn1O [Compound 23, 1-hydroxy-5-(4-nitrophenyl)-3-benzylhydropyrazin-2-one]
[2]
  Activity by plate, % @ 100: 7% @ 100

## N#Cc1ccc(-c2cn(O)c(=O)c(Cc3ccccc3)n2)cc1 [Compound 24, 4-[4-hydroxy-5-oxo-6-benzyl-4-hydropyrazin-2-yl]benzenecarbonitrile]
[2]
  Activity by plate, % @ 100: 41% @ 100

## CC(=O)Nc1ccc(-c2cn(O)c(=O)c(Cc3ccccc3)n2)cc1 [Compound 25, N-{4-[4-hydroxy-5-oxo-6-benzyl-4-hydropyrazin-2-yl]phenyl}acetamide]
[2]
  Activity by plate, % @ 100: 19% @ 100

## O=c1c(Cc2ccc(-c3ccccc3)cc2)nc(-c2ccc(N3CCOCC3)cc2)cn1O [Compound 26, 1-hydroxy-5-(4-morpholin-4-ylphenyl)-3-[(4-phenylphenyl)methyl] hydropyrazin-2-one]
[2]
  Activity by plate, % @ 100: 37% @ 100

## O=c1c(Cc2ccc(-c3ccccc3)cc2)nc(-c2ccc(F)cc2)cn1O [Compound 27, 5-(4-fluorophenyl)-1-hydroxy-3-[(4-phenylphenyl)methyl]hydropyrazin-2-one]
[2]
  Activity by plate, % @ 100: 12% @ 100

## O=c1c(Cc2ccc(-c3ccccc3)cc2)nc(-c2ccc(-c3ccccc3)cc2)cn1O [Compound 28, 1-hydroxy-5-(4-phenylphenyl)-3-[(4-phenylphenyl)methyl]hydropyrazin-2-one]
[2]
  pIC50: 4.92

## O=c1c(Cc2ccc(-c3ccccc3)cc2)nc(-c2ccc(C3CCCCC3)cc2)cn1O [Compound 29, 5-(4-cyclohexylphenyl)-1-hydroxy-3-[(4-phenylphenyl)methyl] hydropyrazin-2-one]
[2]
  Activity by plate, % @ 100: 59% @ 100

## O=c1c(Cc2ccc(-c3ccccc3)cc2)nc(-c2ccc3ccccc3c2)cn1O [Compound 30, 1-hydroxy-5-(2-naphthyl)-3-[(4-phenylphenyl)methyl]hydropyrazin-2-one]
[2]
  Activity by plate, % @ 100: 54% @ 100

## O=c1c(Cc2ccc(-c3ccccc3)cc2)nc(-c2ccc(Br)cc2)cn1O [Compound 31, 5-(4-bromophenyl)-1-hydroxy-3-[(4-phenylphenyl)methyl]hydropyrazin-2-one]
[2]
  pIC50: 5.30

## O=c1c(Cc2ccc(-c3ccccc3)cc2)nc(-c2ccc3c(c2)OCO3)cn1O [Compound 32, 5-(2H-benzo[d]1,3-dioxolen-5-yl)-1-hydroxy-3-[(4-phenylphenyl)methyl] hydropyrazin-2-one]
[2]
  Activity by plate, % @ 100: 40% @ 100

## N#Cc1ccc(-c2cn(O)c(=O)c(Cc3ccc(-c4ccccc4)cc3)n2)cc1 [Compound 33, 4-{4-hydroxy-5-oxo-6-[(4-phenylphenyl)methyl]-4-hydropyrazin-2-yl} benzenecarbonitrile]
[2]
  Activity by plate, % @ 100: 51% @ 100

## O=c1c(Cc2ccccc2)nc(-c2ccc(Cl)c(Cl)c2)cn1O [Compound 39, 5-(3,4-dichlorophenyl)-1-hydroxy-3-benzylhydropyrazin-2-one]
[2]
  Activity by plate, % @ 100: 45% @ 100

## Cc1cc(-c2cn(O)c(=O)c(Cc3ccccc3)n2)ccc1Cl [Compound 40, 5-(4-chloro-3-methylphenyl)-1-hydroxy-3-benzylhydropyrazin-2-one]
[2]
  Activity by plate, % @ 100: 18% @ 100

## Cc1ccc(-c2cn(O)c(=O)c(Cc3ccccc3)n2)cc1 [Compound 41, 1-hydroxy-5-(4-methylphenyl)-3-benzylhydropyrazin-2-one]
[2]
  Activity by plate, % @ 100: 13% @ 100

## CCCCCc1ccc(-c2cn(O)c(=O)c(Cc3ccccc3)n2)cc1 [Compound 42, 1-hydroxy-5-(4-pentylphenyl)-3-benzylhydropyrazin-2-one]
[2]
  Activity by plate, % @ 100: 16% @ 100

## O=c1c(Cc2ccccc2)nc(-c2ccc(C(F)(F)F)cc2)cn1O [Compound 43, 1-hydroxy-3-benzyl-5-[4-(trifluoromethyl)phenyl]hydropyrazin-2-one]
[2]
  Activity by plate, % @ 100: 0% @ 100

## O=c1c(Cc2ccc(-c3ccccc3)cc2)nc(-c2ccc(Cl)c(Cl)c2)cn1O [Compound 44, 5-(3,4-dichlorophenyl)-1-hydroxy-3-[(4-phenylphenyl)methyl] hydropyrazin-2-one]
[2]
  Activity by plate, % @ 100: 45% @ 100

## Cc1cc(-c2cn(O)c(=O)c(Cc3ccc(-c4ccccc4)cc3)n2)ccc1Cl [Compound 45, 5-(4-chloro-3-methylphenyl)-1-hydroxy-3-[(4-phenylphenyl)methyl] hydropyrazin-2-one]
[2]
  Activity by plate, % @ 100: 47% @ 100

## Cc1ccc(-c2cn(O)c(=O)c(Cc3ccc(-c4ccccc4)cc3)n2)cc1 [Compound 46, 1-hydroxy-5-(4-methylphenyl)-3-[(4-phenylphenyl)methyl]hydropyrazin-2-one]
[2]
  Activity by plate, % @ 100: 46% @ 100

## CCCCCc1ccc(-c2cn(O)c(=O)c(Cc3ccc(-c4ccccc4)cc3)n2)cc1 [Compound 47, 1-hydroxy-5-(4-pentylphenyl)-3-[(4-phenylphenyl)methyl]hydropyrazin-2-one]
[2]
  Activity by plate, % @ 100: 39% @ 100

## O=c1c(Cc2ccc(-c3ccccc3)cc2)nc(-c2ccc(C(F)(F)F)cc2)cn1O [Compound 48, 1-hydroxy-3-[(4-phenylphenyl)methyl]-5-[4-(trifluoromethyl)phenyl] hydropyrazin-2-one]
[2]
  Activity by plate, % @ 100: 25% @ 100

## O=C(O)c1cn(C2CC2)c2cc(N3CCNCC3)c(F)cc2c1=O [ciprofloxacin]
B anthracis
  monkeys that survived a lethal aerosol challenge: 8 of 9

## penicillin
B anthracis
  monkeys that survived a lethal aerosol challenge: 7 of 10
